Patent US9085568B2, “Mineralocorticoid receptor antagonists” (Merck Sharp & Dohme Corp., priority 2011, dated 2015)

Biological target: T1, full-length human Mineralocorticoid Receptor (MR) (Homo sapiens, UniProt P08235)
T1 construct: host or cells: PathHunter CHO-K1 cells
T1 sequence (P08235 1-984): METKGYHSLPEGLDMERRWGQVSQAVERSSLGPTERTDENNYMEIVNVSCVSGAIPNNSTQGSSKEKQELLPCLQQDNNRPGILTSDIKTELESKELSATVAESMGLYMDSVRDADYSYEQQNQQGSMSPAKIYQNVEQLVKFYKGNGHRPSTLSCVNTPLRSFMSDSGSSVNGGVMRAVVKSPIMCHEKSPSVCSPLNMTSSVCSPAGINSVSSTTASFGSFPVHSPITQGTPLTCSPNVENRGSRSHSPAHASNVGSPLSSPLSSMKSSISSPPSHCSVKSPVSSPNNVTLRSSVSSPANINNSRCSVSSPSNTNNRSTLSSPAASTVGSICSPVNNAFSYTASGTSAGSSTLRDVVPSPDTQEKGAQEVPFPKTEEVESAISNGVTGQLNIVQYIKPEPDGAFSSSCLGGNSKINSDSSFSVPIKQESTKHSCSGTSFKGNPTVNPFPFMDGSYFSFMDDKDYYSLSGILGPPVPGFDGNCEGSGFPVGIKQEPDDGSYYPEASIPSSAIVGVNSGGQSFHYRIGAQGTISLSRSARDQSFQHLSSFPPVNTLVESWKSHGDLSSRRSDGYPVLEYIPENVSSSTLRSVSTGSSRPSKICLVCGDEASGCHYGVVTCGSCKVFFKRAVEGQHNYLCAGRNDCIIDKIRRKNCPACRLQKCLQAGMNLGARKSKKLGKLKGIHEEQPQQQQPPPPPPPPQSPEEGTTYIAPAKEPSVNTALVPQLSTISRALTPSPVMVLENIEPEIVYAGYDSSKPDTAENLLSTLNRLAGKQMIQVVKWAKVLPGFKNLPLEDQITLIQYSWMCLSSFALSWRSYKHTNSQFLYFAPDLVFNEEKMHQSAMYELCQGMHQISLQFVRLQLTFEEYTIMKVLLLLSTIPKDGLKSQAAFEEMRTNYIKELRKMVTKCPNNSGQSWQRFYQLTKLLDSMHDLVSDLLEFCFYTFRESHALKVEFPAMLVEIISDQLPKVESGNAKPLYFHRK
Experiment: human MR NH Pro assay (PathHunter protein:protein interaction, MR antagonism)
Format: cell-based
Details: PathHunter CHO-K1 cells overexpressing human MR; aldosterone (0.3 nM), 6 hours at 37° C.; antagonism of MR binding to coactivator peptide; read-out: IC50 Rating
Procedure: The activity of the compounds of the present invention regarding mineralocorticoid receptor antagonism was evaluated using the following assay.
The human MR NH Pro assay is a commercially available PathHunter™ Protein: Protein interaction assay (DiscoveRx; http://www.discoverx.com/nhrs/prod-nhrs.php) that measures the ability of compounds to antagonize full-length human Mineralocorticoid Receptor (MR) binding to a coactivator peptide.
3× PathHunter Detection Reagents (Cat #93-0001) (need ˜6 ml/plate). […] Control Agonist: Aldosterone: Sigma cat #A9477 • Prepare stock solution—10 μM in DMSO kept at −20° C. • for assay, dilute in assay media to 1.8 or 6 nM (6× of final concentration=about 0.3 nM to about 1.0 nM) • 5. Cell line: PathHunter CHO-K1 MR cells Cat #93-0456C2, Lot No: 09B0913, from operation liquid nitrogen stock. • 6. […] Methods: • Assay Set Up and Calculations: • 1. Cells were grown in F12+FBS+Hygromycin+pen/strep+Genetin • 2. Cells were collected with 0.05% trypsin and the cell suspension was spun and resuspended in a volume of F12+1.5% CD-FBS and counted. • 3. The cells were resuspended to 4×10^5 cells/mL. • 4. Cells were (25 μL/well) added to the wells of a 384 well plate. • 5. The plate was then incubated at 37° C. over night in a humidified incubator with 5% CO2. • 6. Test compounds were titrated starting at 4.4 mM, 10-point titration in 1:3 dilution. • 7.
5 μL of assay media was added to all wells in column 23 and 24. • 5. Plates were incubated 6 hrs at 37° C., 5% CO2. • 6. 15 μL 3× DiscoveRx detection reagent was added to each well. • 7. Plates were incubated for 1 hour at room temperature (plates stored in the dark). • 8.

| SMILES | IC50 |
| --- | --- |
| COc1cc(OC)cc(-c2nnc([C@@]3(Cc4ccccc4)NC(=O)N([C@H](C)c4ccccc4)C3=O)o2)c1 (single isomer, unassigned) [Compound 22] | 500 to 2000 nM |
| COc1cc(Cc2nnc([C@@]3(Cc4ccccc4)OC(=O)N([C@H](C)c4ccccc4)C3=O)o2)cc(OC)c1 [Compound 2, (5R)-5-Benzyl-5-[5-(3,5-dimethoxybenzyl)-1,3,4-oxadiazol-2-yl]-3-[(1R)-1-phenylethyl]-1,3-oxazolidine-2,4-dione] | < 100 nM |
| COc1cc(N)cc(-c2nnc([C@@]3(Cc4ccccc4)OC(=O)N([C@H](C)c4ccccc4)C3=O)o2)c1 [Compound 10, (5R)-5-[5-(3-Amino-5-methoxyphenyl)-1,3,4-oxadiazol-2-yl]-5-benzyl-3-[(1R)-1-phenylethyl]-1,3-oxazolidine-2,4-dione] | 100 to 500 nM |
| C[C@H](c1ccccc1)N1C(=O)O[C@](Cc2ccccc2)(c2nnc(C3(C(F)(F)F)CC3)o2)C1=O [Compound 12, (5R)-5-Benzyl-3-[(1R)-1-phenylethyl]-5-{5-[1-(trifluoromethyl)cyclopropyl]-1,3,4-oxadiazol-2-yl}-1,3-oxazolidine-2,4-dione] | 500 to 2000 nM |
| C[C@H](c1ccccc1)N1C(=O)O[C@](Cc2ccccc2)(c2nnc(C3(c4ccncc4)CC3)o2)C1=O [Compound 14, (5R)-5-Benzyl-3-[(1R)-1-phenylethyl]-5-[5-(1-pyridin-4-ylcyclopropyl)-1,3,4-oxadiazol-2-yl]-1,3-oxazolidine-2,4-dione] | 100 to 500 nM |

Other lines, results leading:

| IC50 | SMILES |
| --- | --- |
| 500 to 2000 nM | COc1cc(OC)cc(-c2n[nH]c(C3(Cc4ccccc4)OC(=O)N([C@H](C)c4ccc(F)cc4)C3=O)n2)c1 (stereo partly drawn) [Compound 1, 5-Benzyl-5-[5-(3,5-dimethoxyphenyl)-4H-1,2,4-triazol-3-yl]-3-[(1R)-1-(4-fluorophenyl)ethyl]-1,3-oxazolidine-2,4-dione] |
| 100 to 500 nM | C[C@H](c1ccccc1)N1C(=O)O[C@](Cc2ccccc2)(c2nnc(C3(c4cc(F)cc(F)c4)CC3)o2)C1=O [Compound 9, (5R)-5-Benzyl-5-{5-[1-(3,5-difluorophenyl)cyclopropyl]-1,3,4-oxadiazol-2-yl}-3-[(1R)-1-phenylethyl]-1,3-oxazolidine-2,4-dione] |
| 500 to 2000 nM | C[C@H](c1ccccc1)N1C(=O)O[C@](Cc2ccccc2)(c2nnc(CC(F)(F)F)o2)C1=O [Compound 11, (5R)-5-Benzyl-3-[(1R)-1-phenylethyl]-5-[5-(2,2,2-trifluoroethyl)-1,3,4-oxadiazol-2-yl]-1,3-oxazolidine-2,4-dione] |
